Activity calls are given as the source filed them.
What was measured:
[1] = target: T1, Runt-related transcription factor 1/Core-binding factor subunit beta (Homo sapiens, UniProt Q01196+Q13951); assay: inhibitors of RUNX1 Runt–CBFb-SMMHC binding, biochemical, TR-FRET (AID 1438); format: protein assay
[2] = target: T1, Runt-related transcription factor 1/Core-binding factor subunit beta; assay: inhibitors of RUNX1 Runt–CBFb-SMMHC binding, primary screen, biochemical, FRET, Cerulean-Runt, Venus-CBFb-SMMHC, uHTS (AID 1434); format: protein assay;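 also: partner is the CBFb-SMMHC leukemia fusion protein rather than wild-type CBFb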
[3] = test system: HeLa; assay: HeLa cell cytotoxicity, dose response, cytotoxicity control, 24 h, cherry-picked samples (AID 504726); format: functional, cell-based; conditions: Homo sapiens;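 also: potency for cytotoxicity as loss of luminescence signal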
[4] = target: ORF 73 (Human herpesvirus 8, UniProt O40947); assay: inhibitors of C-LANA binding to LBS DNA, dose response, biochemical, fluorescence polarization, cherry-picked samples (AID 504725); parameters: species or system Human gammaherpesvirus 8;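 also: fluorescence polarization of a labeled DNA duplex reporting LANA DNA binding; potency is for inhibitors that block LANA binding to the DNA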
[5] = target: Beta-lactamase (Pseudomonas aeruginosa, UniProt Q79MP6);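 also: biochemical dose-response test of metallo-beta-lactamase enzyme inhibition, read out by epi-absorbance; purified recombinant IMP-1 metallo-beta-lactamase with nitrocefin as substrate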
[6] = target: Beta-lactamase (Salmonella choleraesuis (strain SC-B67), UniProt Q5J463)
[7] = target: Troponin, cardiac muscle (Homo sapiens, UniProt P19429+P45379+P63316); assay: Fluorescence-based biochemical high throughput dose response assay for activators of the calcium sensitivity of cardiac Regulated Thin Filaments (RTF). [Related pubchem assays (depositor defined):AID493008, AID493018, AID504382, AID504383]; format: protein-complex assay
[8] = target: T2, Hexokinase HKDC1 (Homo sapiens, UniProt Q2TB90); assay: HKDC1 hexokinase activators, dose response, biochemical, W721R variant (AID 504730); format: functional
T2 sequence (Q2TB90 whole entry): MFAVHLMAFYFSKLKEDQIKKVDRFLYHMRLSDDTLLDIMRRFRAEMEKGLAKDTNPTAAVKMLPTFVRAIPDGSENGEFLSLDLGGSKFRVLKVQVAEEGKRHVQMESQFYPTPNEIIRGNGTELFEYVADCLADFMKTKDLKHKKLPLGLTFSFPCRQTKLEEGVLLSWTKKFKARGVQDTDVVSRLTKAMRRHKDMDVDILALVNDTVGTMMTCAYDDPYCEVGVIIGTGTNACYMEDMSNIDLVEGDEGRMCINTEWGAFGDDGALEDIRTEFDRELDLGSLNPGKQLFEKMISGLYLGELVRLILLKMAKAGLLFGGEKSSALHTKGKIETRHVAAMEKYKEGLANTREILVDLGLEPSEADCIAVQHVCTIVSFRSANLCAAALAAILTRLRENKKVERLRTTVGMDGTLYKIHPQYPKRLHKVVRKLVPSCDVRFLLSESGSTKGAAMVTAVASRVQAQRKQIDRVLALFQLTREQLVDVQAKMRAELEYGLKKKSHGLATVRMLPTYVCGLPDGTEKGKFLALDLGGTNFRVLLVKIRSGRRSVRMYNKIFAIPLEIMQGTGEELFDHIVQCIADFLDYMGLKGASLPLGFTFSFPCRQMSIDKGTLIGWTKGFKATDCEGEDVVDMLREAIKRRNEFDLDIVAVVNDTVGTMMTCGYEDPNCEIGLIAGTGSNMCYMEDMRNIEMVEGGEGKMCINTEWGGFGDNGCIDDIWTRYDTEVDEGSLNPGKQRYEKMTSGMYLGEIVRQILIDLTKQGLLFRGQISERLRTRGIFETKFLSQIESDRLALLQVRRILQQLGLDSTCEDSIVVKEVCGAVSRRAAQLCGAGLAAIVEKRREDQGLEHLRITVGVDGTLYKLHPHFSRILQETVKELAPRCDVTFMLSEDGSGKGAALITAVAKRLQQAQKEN

[9] = target: T3, Voltage-gated N-type calcium channel alpha-1B subunit/Amyloid beta A4 precursor protein-binding family A member 1 (Homo sapiens, UniProt Q00975+Q02410); format: protein assay
[10] = target: Induced myeloid leukemia cell differentiation protein Mcl-1 (Homo sapiens, UniProt Q07820); format: functional
[11] = target: T3, Voltage-gated N-type calcium channel alpha-1B subunit/Amyloid beta A4 precursor protein-binding family A member 1; format: protein assay; remark: listed apart in the source
[12] = target: T4, Hexokinase-1 (Homo sapiens, UniProt P19367); assay: hexokinase 1 activators, dose response, selectivity assay for HKDC1 activator project, biochemical (AID 504762); format: functional
T4 sequence (P19367 whole entry): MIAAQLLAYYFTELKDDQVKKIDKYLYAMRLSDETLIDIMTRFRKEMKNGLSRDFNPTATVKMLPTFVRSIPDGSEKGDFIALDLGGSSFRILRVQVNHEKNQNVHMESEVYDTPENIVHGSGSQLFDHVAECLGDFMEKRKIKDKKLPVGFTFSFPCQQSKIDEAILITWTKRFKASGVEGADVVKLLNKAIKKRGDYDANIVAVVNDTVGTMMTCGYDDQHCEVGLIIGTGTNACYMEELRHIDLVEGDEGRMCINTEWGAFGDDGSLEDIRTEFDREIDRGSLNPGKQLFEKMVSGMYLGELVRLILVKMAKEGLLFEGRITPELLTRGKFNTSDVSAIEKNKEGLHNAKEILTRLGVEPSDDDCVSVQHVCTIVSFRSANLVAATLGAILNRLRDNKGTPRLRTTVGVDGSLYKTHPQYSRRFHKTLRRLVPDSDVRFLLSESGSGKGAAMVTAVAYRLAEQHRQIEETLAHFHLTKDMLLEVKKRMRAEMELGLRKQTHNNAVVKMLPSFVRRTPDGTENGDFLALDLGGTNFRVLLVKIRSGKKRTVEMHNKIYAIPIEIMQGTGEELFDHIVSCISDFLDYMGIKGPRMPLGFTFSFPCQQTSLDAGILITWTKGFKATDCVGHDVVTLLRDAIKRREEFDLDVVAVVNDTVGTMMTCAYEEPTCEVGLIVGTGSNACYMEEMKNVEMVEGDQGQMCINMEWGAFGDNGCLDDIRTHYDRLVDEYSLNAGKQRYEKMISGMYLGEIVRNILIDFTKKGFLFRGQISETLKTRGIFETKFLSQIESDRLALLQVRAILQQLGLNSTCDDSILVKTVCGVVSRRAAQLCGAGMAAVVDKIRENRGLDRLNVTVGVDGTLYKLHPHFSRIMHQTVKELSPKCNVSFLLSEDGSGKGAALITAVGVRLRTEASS

[13] = target: T5, Kappa-type opioid receptor (Homo sapiens, UniProt P41145); assay: SAR analysis of Antagonists of the Kappa Opioid Receptor (KOR) using an Image-Based Assay - Set 3. [Related pubchem assays (depositor defined):AID1777, AID1785]; format: functional
[14] = target: T5, Kappa-type opioid receptor; assay: SAR analysis of small molecule antagonists of the kappa opioid receptor via a luminescent beta-arrestin assay - Set 3. [Related pubchem assays (depositor defined):AID1777, AID1778, AID1785, AID1786, AID1966, AID2133, AID2136, AID2285, AID2495]; format: functional
[15] = target: Delta-type opioid receptor (Homo sapiens, UniProt P41143); assay: SAR Analysis of Antagonists of the DOR Receptor using an Image-Based Assay - Set 3. [Related pubchem assays (depositor defined):AID1777, AID1785]; format: functional;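 also: U2OS cells expressing DOR1 and beta-arrestin GFP stimulated with 100 nM SNC80; imaging of GFP-tagged beta-arrestin moving into spots after receptor activation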
[16] = target: Mu-type opioid receptor (Homo sapiens, UniProt P35372); assay: SAR Analysis of Antagonists of the MOR Receptor using an Image-Based Assay - Set 3. [Related pubchem assays (depositor defined):AID1777, AID1785, AID1786, AID1966, AID2133, AID2136, AID2284, AID2285, AID2420]; format: functional
[17] = test system: INS1; assay: beta cell apoptosis inhibitors, cytokine rescue, dose response, luminescence, retest (AID 449756); format: functional, cell-based; conditions: Rattus norvegicus;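 also: cell death triggered by IL-1 beta plus TNF-alpha plus IFN-gamma mixture; protective hits raise ATP signal compared with cytokine alone wells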
[18] = target: T6, Protein RecA (Mycobacterium tuberculosis, UniProt P9WHJ3); assay: Fluorescence Cell-Free Homogeneous Dose Retest to Identify Inhibitors of RecA-Intein Splicing Activity. [Related pubchem assays (depositor defined):AID2097, AID2223, AID489010, AID492950]; format: functional
T6 sequence (P9WHJ3 whole entry): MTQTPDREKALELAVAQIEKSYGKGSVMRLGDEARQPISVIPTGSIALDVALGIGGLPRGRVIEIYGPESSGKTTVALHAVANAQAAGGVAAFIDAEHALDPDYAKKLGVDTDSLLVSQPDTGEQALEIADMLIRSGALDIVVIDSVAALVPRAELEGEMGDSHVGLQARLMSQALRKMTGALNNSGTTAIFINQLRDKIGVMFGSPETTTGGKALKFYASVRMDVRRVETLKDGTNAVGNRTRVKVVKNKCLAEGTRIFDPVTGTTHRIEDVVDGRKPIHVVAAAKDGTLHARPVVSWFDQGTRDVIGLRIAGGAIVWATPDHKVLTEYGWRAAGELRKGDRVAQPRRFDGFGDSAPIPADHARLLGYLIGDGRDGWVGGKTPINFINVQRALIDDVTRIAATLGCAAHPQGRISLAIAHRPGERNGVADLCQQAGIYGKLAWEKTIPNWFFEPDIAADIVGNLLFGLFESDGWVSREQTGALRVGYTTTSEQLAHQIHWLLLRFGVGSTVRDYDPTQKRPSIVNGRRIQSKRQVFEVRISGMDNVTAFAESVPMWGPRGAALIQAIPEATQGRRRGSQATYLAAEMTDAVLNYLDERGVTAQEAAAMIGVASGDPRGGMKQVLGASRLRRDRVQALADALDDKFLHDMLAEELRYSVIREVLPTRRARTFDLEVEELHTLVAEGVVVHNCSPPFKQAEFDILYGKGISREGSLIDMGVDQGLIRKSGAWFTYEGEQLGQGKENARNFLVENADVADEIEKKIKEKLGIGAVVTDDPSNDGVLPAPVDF

[19] = target: T7, Sphingosine 1-phosphate receptor 4 (Homo sapiens, UniProt O95977); assay: Fluorescence dose response cell-based high throughput screening assay for antagonists of the Sphingosine 1-Phosphate Receptor 4 (S1P4). [Related pubchem assays: 1524 (Confirmation in triplicates.), 1510 (Primary screen.)]; format: functional
T7 sequence (O95977 whole entry): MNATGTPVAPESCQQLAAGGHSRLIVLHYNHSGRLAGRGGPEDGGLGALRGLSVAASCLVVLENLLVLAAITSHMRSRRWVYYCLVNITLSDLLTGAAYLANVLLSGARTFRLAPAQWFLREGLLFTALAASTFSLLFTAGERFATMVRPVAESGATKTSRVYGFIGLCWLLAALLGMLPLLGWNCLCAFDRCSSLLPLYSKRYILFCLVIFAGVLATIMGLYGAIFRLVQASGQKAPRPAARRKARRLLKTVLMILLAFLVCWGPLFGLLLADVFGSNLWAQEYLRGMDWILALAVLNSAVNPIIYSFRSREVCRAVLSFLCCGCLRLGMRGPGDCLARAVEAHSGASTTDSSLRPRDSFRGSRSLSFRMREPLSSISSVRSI

[20] = target: T8, Replicative DNA helicase DnaB (Mycobacterium tuberculosis, UniProt P9WMR3); assay: DnaB intein splicing inhibitors, dose response, biochemical, cell-free fluorescence (AID 449749); format: functional
T8 sequence (P9WMR3 whole entry): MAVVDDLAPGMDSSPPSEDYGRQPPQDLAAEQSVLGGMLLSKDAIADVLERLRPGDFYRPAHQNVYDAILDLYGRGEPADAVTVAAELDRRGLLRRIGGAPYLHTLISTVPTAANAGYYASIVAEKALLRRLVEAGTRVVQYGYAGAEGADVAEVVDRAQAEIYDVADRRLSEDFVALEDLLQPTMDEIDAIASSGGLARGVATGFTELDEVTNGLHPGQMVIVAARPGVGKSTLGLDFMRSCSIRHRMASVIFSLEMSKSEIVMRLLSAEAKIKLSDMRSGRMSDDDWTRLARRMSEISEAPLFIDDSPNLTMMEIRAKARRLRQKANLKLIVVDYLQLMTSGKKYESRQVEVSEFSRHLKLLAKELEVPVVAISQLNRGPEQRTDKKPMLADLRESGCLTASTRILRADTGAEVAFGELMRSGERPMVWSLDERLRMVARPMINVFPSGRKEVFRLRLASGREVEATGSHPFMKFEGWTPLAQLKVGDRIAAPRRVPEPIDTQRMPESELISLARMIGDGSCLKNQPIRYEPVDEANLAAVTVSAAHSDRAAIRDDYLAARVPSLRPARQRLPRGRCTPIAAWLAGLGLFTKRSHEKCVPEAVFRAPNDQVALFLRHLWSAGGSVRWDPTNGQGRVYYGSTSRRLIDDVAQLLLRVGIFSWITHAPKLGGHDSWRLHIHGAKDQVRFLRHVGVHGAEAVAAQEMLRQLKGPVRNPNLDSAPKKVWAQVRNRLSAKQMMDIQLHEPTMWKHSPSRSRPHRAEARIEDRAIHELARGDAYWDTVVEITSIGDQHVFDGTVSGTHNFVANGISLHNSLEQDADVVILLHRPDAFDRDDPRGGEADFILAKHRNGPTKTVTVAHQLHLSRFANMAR

[21] = Intein inhibitors as potential Tuberculosis drugs, a cytotoxicity screen. [Related pubchem assays (depositor defined):AID2221, AID2223, AID434968, AID435010, AID449749, AID449750, AID489010]; format: functional
[22] = test system: Vero; assay: host cell cytotoxicity of antiviral hits, dose response, cytotoxicity control for West Nile virus antiviral project, secondary assay (AID 1650); format: functional; conditions: Chlorocebus sabaeus
[23] = target: Sphingosine 1-phosphate receptor 1 (Homo sapiens, UniProt P21453); format: functional;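 also: Tango beta-arrestin reporter U2OS cells stimulated with S1P near its EC80; inhibitor potency meaning antagonism of receptor activation by the natural agonist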

Structure (SMILES): COc1cccc(-c2nc(-c3ccc4c(c3)-c3ccccc3S4(=O)=O)c(-c3ccccc3)[nH]2)c1OC
- IC50 [1]: > 100 µM (inactive)
- IC50 [2]: 33.6 µM (active)

Structure (SMILES): O=[N+]([O-])c1ccc(N2CCCCCC2)c2nonc12
- AC50 [3]: 69.4 µM (active)
- AC50 [4]: 54.6 µM (active)
- IC50 [5]: > 59.6 µM (inactive)
- IC50 [6]: 22.4 µM (inactive)
- EC50 [7]: 0.413 µM (active)

Structure (SMILES): CC(=O)Nc1ccc(C2=NN=C(Nc3ccc(S(=O)(=O)N4CCOCC4)cc3)SC2)cc1
- EC50 [8]: 7.92 µM (active)
- IC50 [9]: 13.8 µM (active)
- IC50 [10]: 1.61 µM (active)
- IC50 [11]: > 50 µM (inactive)
- EC50 [12]: 7.65 µM (active)

Structure (SMILES): CCc1ccc(S(=O)(=O)NCc2ccc(C(=O)NCCN(C)[C@@H](C)c3ccccc3)cc2)cc1
- IC50 [13]: 0.749 µM (active)
- IC50 [14]: 3.75 µM (active)
- IC50 [15]: > 32 µM (inactive)
- IC50 [16]: > 32 µM (inactive)

Structure (SMILES): Cc1c(/C=N/Nc2nc3ccccc3[nH]2)c2ccccc2n1C
- AC50 [17]: 4.83 µM (active)
- EC50 [18]: 1.99 µM (active)
- IC50 [19]: 1.76 µM (active)
- AC50 [20]: 3.82 µM (active)
- CC50 [21]: 18.1 µM (active)
- CC50 [22]: 39.2 µM (active)
- IC50 [23]: 6.78 µM (active)

Reference: ChEMBL document CHEMBL1201862, “PubChem BioAssay data set” (2004)
